Tests used:
Trypsin = target: T1, Trypsin (Sus scrofa, UniProt P00761); assay: Trypsin inhibition by health supplements in confluent A549 cells (cell detachment, crystal violet staining, microscopy); assay type: cell-based; conditions: for concentration at end point dilution of trypsin inhibition: FIG. 11, 0.125% trypsin, serial dilutions in 24 well plate; for concentration at end point of trypsin inhibitory effects: FIG. 13, cell morphology under microscope vs cell and trypsin control
T1 construct: purchased Gibco Lot no-2455123
T1 sequence (P00761 9-231): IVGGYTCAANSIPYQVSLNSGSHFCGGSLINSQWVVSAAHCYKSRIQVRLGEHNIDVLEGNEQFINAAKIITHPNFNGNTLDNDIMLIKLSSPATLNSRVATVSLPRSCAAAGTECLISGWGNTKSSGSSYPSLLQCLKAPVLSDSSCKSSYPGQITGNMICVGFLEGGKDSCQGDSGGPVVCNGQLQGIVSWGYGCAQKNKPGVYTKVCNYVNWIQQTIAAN
Description: In a preferred embodiment, supplements are diluted two to five-fold dilutions (where ever necessary) in PBS (pH 7.4) either as single component and/or various combinations and tested in cell lines grown in either 6, 12, 24 and/or 48 well plates. Cell (CC) and trypsin control (TC) were kept as protease negative and positive indicators in every experiment. Trypsin-EDTA (Gibco Lot no-2455123, Canada) was added into all wells (0.125%) expect cell control wells.
(§1) Fluids from the plate was discarded and washed twice with PBS. Following wash the plate was stained with 1% crystal violet in […] at room temperature for 5 minutes. Following incubation, crystal violet from each well was discarded and washed two to three times with PBS and removed any excess dye from each well.
(§2) Health supplements were collected from pharmaceutical laboratory and were randomly screened in one of the lungs cancer cell lines called A549 for their protease inhibitory effects. Cells were cultivated in 6 well plate using standard technique until confluent. Once the plate is ready, culture media from each well were removed and washed two times with PBS. Following wash, 500 μl of supplements at appropriate dilutions were added into well followed by 500 μl of trypsin (0.25%) to each well except the well having cell control (CC). Plate was incubated at 37° C. and checked at every 5 minutes to see the effect of trypsin on cell morphology. Once cells in trypsin control well lift off from the surface, discard fluid from all wells, wash two times with PBS and stained cells by 1% crystal violet (in alcohol) for two-three minutes. Following staining wells were washed 2-3 times with PBS in order to remove excess dye and finally checked the cell morphology using inverted microscope as well as by naked eye (FIG. 7, 8).
A further experiment was conducted using serine proteases (Trypsin and Elastase) against two formulations of health supplements such as Vitamin C and combination Vitamins C (PC Drug Center Ltd, Bangkok, Thailand) with Thiamine (B1-Roche, lot no: 8077395)) and Pyridoxine (B6, Roche, lot no: 8079496). This formulation of three vitamins is designed as tbc and experiment was conducted in six well plate with confluent A549 cells using technique described in [0044].
The end point of trypsin inhibition of each supplement was calculated in terms of μg/ml. The cell morphologies were also observed by under inverted microscope (4×10) and are shown FIG. 12-15.

Elastase = target: T2, Elastase (Sus scrofa, UniProt P00772); assay: Elastase inhibition by health supplements in confluent A549 cells (cell detachment, crystal violet staining, microscopy); assay type: cell-based
T2 construct: purchased SIGMA E017-5 mg
T2 sequence (P00772 27-266): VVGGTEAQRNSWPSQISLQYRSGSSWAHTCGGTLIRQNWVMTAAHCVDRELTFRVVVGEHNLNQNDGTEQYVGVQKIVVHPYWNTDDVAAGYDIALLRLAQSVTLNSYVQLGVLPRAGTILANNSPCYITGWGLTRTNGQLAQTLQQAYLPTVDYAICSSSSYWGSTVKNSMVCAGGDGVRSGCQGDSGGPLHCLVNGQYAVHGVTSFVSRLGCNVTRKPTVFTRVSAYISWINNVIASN
Description: as §1
In a solution of the preferred inhibitor of the present invention in which the inhibitor and trypsin are present in a concentration greater 0.355 mM verses 0.524 mM such inhibitor would react >95% of an equivalent molecular amount of trypsin.
as §2, with “Following staining wells were washed 2-3 times with PBS in order to remove excess dye and finally checked the cell morphology using inverted microscope as well as by naked eye (FIG. 7, 8).” left out

[1] = FIG. 12, trypsin at 1.25% concentration, microscopy

In the case of `Cc1ncc(C[n+]2csc(CCO)c2C)c(N)n1` [B1, Thiamine], the “concentration at end point dilution of trypsin inhibition” value (“concentration … of trypsin inhibition” for short) (Trypsin) is reported as 1.0% and the “concentration at end point of trypsin inhibitory effects” value (Trypsin) is reported as 1.0%.
For `O=C1O[C@H]([C@@H](O)CO)C(O)=C1O` [vitamin C, Ascorbic acid], the “inhibition of enzymatic activities of Trypsin (T)” value (Trypsin; FIG. 7, A549 cells, compared with cell control (CC) and trypsin control (TC)) was “showed inhibitions of enzymatic activities”, the “level of inhibition against trypsin” value (Trypsin; FIG. 9, A549, six well plate, 1.25% trypsin, Ascorbic acid 2.5% alone or tbc (Ascorbic acid 2.5%, Thiamine 0.1%, Pyridoxine 0.15%)) was “good level of inhibition” and the “inhibition of enzymatic activities of Elastase (E)” value (Elastase; FIG. 7, A549 cells, compared with cell control (CC) and elastase control (EC)) was “showed inhibitions of enzymatic activities”. For the same molecule, the “level of inhibition against elastase” value (Elastase; FIG. 9, A549, six well plate, 0.5% elastase, Ascorbic acid 2.5% alone or tbc (Ascorbic acid 2.5%, Thiamine 0.1%, Pyridoxine 0.15%)) was “good level of inhibition”.
In the case of `Cc1ncc(CO)c(CO)c1O` [B6, Pyridoxine], the “concentration … of trypsin inhibition” value (Trypsin) is reported as 0.5% and the “concentration at end point of trypsin inhibitory effects” value (Trypsin) is reported as 0.5%.
For `O=C1O[C@H]([C@@H](O)CO)C(O)=C1O` [AC-1, Ascorbic acid], the “concentration … of trypsin inhibition” value (Trypsin) was 0.25%, the “concentration efficiently neutralizing catalytic activities of trypsin” value (Trypsin; [1]) was 0.25% and the “concentration from which capability of neutralization of trypsin starts to be lost” value (Trypsin; [1]) was 0.125%.

From patent US20250375416A1, “SERINE PROTEASE INHIBITORY EFFECTS OF HEALTH SUPPLEMENTS IN HUMAN CANCEROUS CELL LINES” (priority 2022, published 2025)
